Columns and labels:
[1] = tested on: COLO 205; test: NCI DTP cell line screen (SRB), Colon Cancer; type: cell-based, human
Experimental: (§1) Screening of compounds 70 and 71 against several cancer cell lines The human tumor cell lines of the cancer screening panel are grown in RPMI 1640 medium containing 5% fetal bovine serum and 2 mM L-glutamine. For a typical screening experiment, cells are inoculated into 96 well microtiter plates in 100 μL at plating densities ranging from 5,000 to 40,000 cells/well depending on the doubling time of individual cell lines. After cell inoculation, the microtiter plates are incubated at 37° C., 5% CO2, 95% air and 100% relative humidity for 24 h prior to addition of experimental drugs.
(§2) After 24 h, two plates of each cell line are fixed in situ with TCA, to represent a measurement of the cell population for each cell line at the time of drug addition (Tz). Experimental drugs are solubilized in dimethyl sulfoxide at 400-fold the desired final maximum test concentration and stored frozen prior to use. At the time of drug addition, an aliquot of frozen concentrate is thawed and diluted to twice the desired final maximum test concentration with complete medium containing 50 μg/ml gentamicin. Additional four, 10-fold or ½ log serial dilutions are made to provide a total of five drug concentrations plus control. Aliquots of 100 μl of these different drug dilutions are added to the appropriate microtiter wells already containing 100 μl of medium, resulting in the required final drug concentrations.
(§3) Following drug addition, the plates are incubated for an additional 48 h at 37° C., 5% CO2, 95% air, and 100% relative humidity. For adherent cells, the assay is terminated by the addition of cold TCA. Cells are fixed in situ by the gentle addition of 50 μl of cold 50% (w/v) TCA (final concentration, 10% TCA) and incubated for 60 minutes at 4° C. The supernatant is discarded, and the plates are washed five times with tap water and air dried. Sulforhodamine B (SRB) solution (100 μl) at 0.4% (w/v) in 1% acetic acid is added to each well, and plates are incubated for 10 minutes at room temperature. After staining, unbound dye is removed by washing five times with 1% acetic acid and the plates are air dried. Bound stain is subsequently solubilized with 10 mM trizma base, and the absorbance is read on an automated plate reader at a wavelength of 515 nm. For suspension cells, the methodology is the same except that the assay is terminated by fixing settled cells at the bottom of the wells by gently adding 50 μl of 80% TCA (final concentration, 16% TCA). Using the seven absorbance measurements [time zero, (Tz), control growth, (C), and test growth in the presence of drug at the five concentration levels (Ti)], the percentage growth is calculated at each of the drug concentrations levels. Percentage growth inhibition is calculated as: [(Ti−Tz)/(C−Tz)]×100 for concentrations for which Ti>/=Tz [(Ti−Tz)/Tz]×100 for concentrations for which Ti<Tz
(§4) Three dose response parameters are calculated for each experimental agent. […] The drug concentration resulting in total growth inhibition (TGI) is calculated from Ti=Tz. […] Values are calculated for each of these three parameters if the level of activity is reached; however, if the effect is not reached or is exceeded, the value for that parameter is expressed as greater or less than the maximum or minimum concentration tested.
(§5) The methods described were used to test compounds 70 and 71 on a panel of sixty cell lines under a screening service provided by the Developmental Therapeutics Program at the National Institutes of Health. Shown in FIG. 1C are 1, RPMI-8226 leukemia cells; 2; NCI-H322M non-small cell lung cancer cells; 3, HT29 colon cancer cells; 4, U251 CNS cancer cells; 5, SK-MEL-28 melanoma cancer cells; 6, SK-OV-3 ovarian cancer cells; 7, RXF 393 renal cancer cells; 8, PC-3 prostate cancer cells; 9, MDA-MB-231 breast cancer cells.

[2] = tested on: MALME-3M; test: NCI DTP cell line screen (SRB), Melanoma; type: cell-based
[3] = tested on: SK-MEL-5; test: NCI DTP cell line screen (SRB), Melanoma; type: cell-based, human
Experimental: as §1, §2, §3, §4, §5

[4] = tested on: UACC-62; test: NCI DTP cell line screen (SRB), Melanoma; type: cell-based
[5] = tested on: ACHN; test: NCI DTP cell line screen (SRB), Renal Cancer; type: cell-based, human
Experimental: as §1, §2, §3, §4, §5

[6] = tested on: CAKI-1; test: NCI DTP cell line screen (SRB), Renal Cancer; type: cell-based, human
Experimental: as §1, §2, §3, §4, §5

[7] = tested on: RXF 393; test: NCI DTP cell line screen (SRB), Renal Cancer; type: cell-based, human; details: RXF 393
Experimental: as §1, §2, §3, §4, §5

[8] = tested on: UO-31; test: NCI DTP cell line screen (SRB), Renal Cancer; type: cell-based, human
Experimental: as §1, §2, §3, §4, §5

For NCC(=O)Nc1ccc(-n2nc(C(F)(F)F)cc2-c2ccc3c(ccc4ccccc43)c2)cc1 [Compound 70, 2-Amino-N-{4-[5-(2-phenanthrenyl)-3-(trifluoromethyl)-1H-pyrazol-1-yl]-phenyl}-acetamide], the “Percent Growth” value ([1]; Log10 Concentration −4.0) was 1%, the “Percent Growth” value ([1]; Log10 Concentration −5.0) was −53% and the “Percent Growth” value ([1]; Log10 Concentration −6.0) was 58%. The “Percent Growth” value ([1]; Log10 Concentration −7.0) was 87%, the “Percent Growth” value ([1]; Log10 Concentration −8.0) was 89% and the TGI [2] was 3.67E−06. The “Percent Growth” value ([2]; Log10 Concentration −4.0) was −56%, the “Percent Growth” value ([2]; Log10 Concentration −5.0) was −67% and the “Percent Growth” value ([2]; Log10 Concentration −6.0) was 87%. For the same compound, the “Percent Growth” value ([2]; Log10 Concentration −7.0) was 93%, the “Percent Growth” value ([2]; Log10 Concentration −8.0) was 92% and the “Percent Growth” value ([3]; Log10 Concentration −4.0) was −34%. The “Percent Growth” value ([3]; Log10 Concentration −5.0) was −75%, the “Percent Growth” value ([3]; Log10 Concentration −6.0) was 69% and the “Percent Growth” value ([3]; Log10 Concentration −7.0) was 88%. The “Percent Growth” value ([3]; Log10 Concentration −8.0) was 91%, the TGI ([3]; in M (unit assumed)) was 3.02E−06 and the TGI [4] was 3.15E−06. For the same compound, the “Percent Growth” value ([4]; Log10 Concentration −4.0) was −46%, the “Percent Growth” value ([4]; Log10 Concentration −5.0) was −80% and the “Percent Growth” value ([4]; Log10 Concentration −6.0) was 79%. For the same compound, the “Percent Growth” value ([4]; Log10 Concentration −7.0) was 94%, the “Percent Growth” value ([4]; Log10 Concentration −8.0) was 105% and the “Percent Growth” value ([5]; Log10 Concentration −4.0) was −16%. For the same compound, the “Percent Growth” value ([5]; Log10 Concentration −5.0) was −60%, the “Percent Growth” value ([5]; Log10 Concentration −6.0) was 70% and the “Percent Growth” value ([5]; Log10 Concentration −7.0) was 102%. For the same compound, the “Percent Growth” value ([5]; Log10 Concentration −8.0) was 94%, the TGI ([5]; in M (unit assumed)) was 3.45E−06 and the “Percent Growth” value ([6]; Log10 Concentration −4.0) was −44%. For the same compound, the “Percent Growth” value ([6]; Log10 Concentration −5.0) was −75%, the “Percent Growth” value ([6]; Log10 Concentration −6.0) was 42% and the “Percent Growth” value ([6]; Log10 Concentration −7.0) was 95%. The “Percent Growth” value ([6]; Log10 Concentration −8.0) was 87%, the TGI ([6]; in M (unit assumed)) was 2.27E−06 and the “Percent Growth” value ([7]; Log10 Concentration −4.0) was 10%. The “Percent Growth” value ([7]; Log10 Concentration −5.0) was −56%, the “Percent Growth” value ([7]; Log10 Concentration −6.0) was 56% and the “Percent Growth” value ([7]; Log10 Concentration −7.0) was 75%. The “Percent Growth” value ([7]; Log10 Concentration −8.0) was 91%, the “Percent Growth” value ([8]; Log10 Concentration −4.0) was −36% and the “Percent Growth” value ([8]; Log10 Concentration −5.0) was −64%. For the same compound, the “Percent Growth” value ([8]; Log10 Concentration −6.0) was 68%, the “Percent Growth” value ([8]; Log10 Concentration −7.0) was 84% and the “Percent Growth” value ([8]; Log10 Concentration −8.0) was 84%. The TGI ([8]; in M (unit assumed)) was 3.29E−06.
